Laboratory results: the supplement of paper PMC11061612

Key:
Carboplatin = compound: C1CC(C1)(C(=O)[O-])C(=O)[O-].N.N.[Pt+2] [Carboplatin]; conditions: max 10 µM
Outline: (§1)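 Plates with 1536 wells received cancer cell lines in 7.5 μl of DMEM/F12 or RPMI containing 10% FBS. After 24 hours at 37°C and 5% CO2, cells were dosed for 72 hours with final DMSO typically 0.2%, and viability was read by CellTiter-Glo 2.0 luminescence scaled between blank-well and DMSO-well means. The single-agent IC50 was taken from a logistic fit of the dose responses made with a non-linear mixed effects model, that logistic curve having two parameters.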

AZD5363 = compound: C1CN(CCC1(C(=O)N[C@@H](CCO)C2=CC=C(C=C2)Cl)N)C3=NC=NC4=C3C=CN4 [AZD5363]; conditions: max 10 µM
Outline: as §1

AZD1775 = compound: C=CCn1c(=O)c2cnc(Nc3ccc(N4CCN(C)CC4)cc3)nc2n1-c1cccc(C(C)(C)O)n1 [AZD1775]; conditions: max 3 µM
Outline: as §1

Trametinib = compound: CC(=O)Nc1cccc(-n2c(=O)n(C3CC3)c(=O)c3c(Nc4ccc(I)cc4F)n(C)c(=O)c(C)c32)c1 [Trametinib]; conditions: max 1 µM
Outline: as §1

Paclitaxel = compound: CC(=O)O[C@H]1C(=O)[C@@]2(C)[C@H]([C@H](OC(=O)c3ccccc3)[C@]3(O)C[C@H](OC(=O)[C@H](O)[C@@H](NC(=O)c4ccccc4)c4ccccc4)C(C)=C1C3(C)C)[C@]1(OC(C)=O)CO[C@@H]1C[C@@H]2O [Paclitaxel]; conditions: max 3 µM
Outline: as §1

Palbociclib = compound: CC(=O)c1c(C)c2cnc(Nc3ccc(N4CCNCC4)cn3)nc2n(C2CCCC2)c1=O [Palbociclib]; conditions: max 10 µM
Outline: as §1

AZD1390 = compound: CC(C)n1c(=O)n(C)c2cnc3cc(F)c(-c4ccc(OCCCN5CCCCC5)nc4)cc3c21 [AZD1390]; conditions: max 0.3 µM
Outline: as §1

Venetoclax = compound: CC1(C)CCC(CN2CCN(c3ccc(C(=O)NS(=O)(=O)c4ccc(NCC5CCOCC5)c([N+](=O)[O-])c4)c(Oc4cnc5[nH]ccc5c4)c3)CC2)=C(c2ccc(Cl)cc2)C1 [Venetoclax]; conditions: max 1 µM
Outline: as §1

Dasatinib = compound: CC1=C(C(=CC=C1)Cl)NC(=O)C2=CN=C(S2)NC3=CC(=NC(=N3)C)N4CCN(CC4)CCO [Dasatinib]; conditions: max 2 µM
Outline: as §1

SG3199 = compound: CC1=CN2[C@@H](C1)C=NC3=CC(=C(C=C3C2=O)OC)OCCCCCOC4=C(C=C5C(=C4)N=C[C@@H]6CC(=CN6C5=O)C)OC [SG3199]; conditions: max 0.001 µM
Outline: as §1

AZD2811 = compound: CCN(CCO)CCCOc1ccc2c(Nc3cc(CC(=O)Nc4cccc(F)c4)[nH]n3)ncnc2c1 [AZD2811]; conditions: max 1 µM
Outline: as §1

SN-38 = compound: CCc1c2c(nc3ccc(O)cc13)-c1cc3c(c(=O)n1C2)COC(=O)[C@]3(O)CC [SN-38]; conditions: max 0.3 µM
Outline: as §1

AZD0156 = compound: CN(C)CCCOc1ccc(-c2ccc3ncc4c(c3c2)n(C2CCOCC2)c(=O)n4C)cn1 [AZD0156]; conditions: max 3 µM
Outline: as §1

AZD4320 = compound: CN(CC[C@H](CSC1=CC=CC=C1)NC2=C(C=C(C=C2)S(=O)(=O)NC(=O)C3=CC=C(C=C3)N4CCC(CC4)[C@H](C5=CC=CC=C5C6=CC=C(C=C6)Cl)O)S(=O)(=O)C(F)(F)F)CCO [AZD4320]; conditions: max 1 µM
Outline: as §1

Alisertib = compound: COc1cc(Nc2ncc3c(n2)-c2ccc(Cl)cc2C(c2c(F)cccc2OC)=NC3)ccc1C(=O)O [Alisertib]; conditions: max 10 µM
Outline: as §1

Etoposide = compound: COc1cc([C@@H]2c3cc4c(cc3[C@@H](O[C@@H]3O[C@@H]5CO[C@@H](C)O[C@H]5[C@H](O)[C@H]3O)[C@H]3COC(=O)[C@H]23)OCO4)cc(OC)c1O [Etoposide]; conditions: max 10 µM
Outline: as §1

Gefitinib = compound: COc1cc2ncnc(Nc3ccc(F)c(Cl)c3)c2cc1OCCCN1CCOCC1 [Gefitinib]; conditions: max 10 µM
Outline: as §1

Prexasertib = compound: COc1cccc(OCCCN)c1-c1cc(Nc2cnc(C#N)cn2)n[nH]1 [Prexasertib]; conditions: max 1 µM
Outline: as §1

Doxorubicin = compound: COc1cccc2c1C(=O)c1c(O)c3c(c(O)c1C2=O)C[C@@](O)(C(=O)CO)C[C@@H]3O[C@H]1C[C@H](N)[C@H](O)[C@H](C)O1 [Doxorubicin]; conditions: max 1 µM
Outline: as §1

AZD5153 = compound: COc1nnc2ccc(N3CCC(c4ccc(OCCN5CCN(C)C(=O)[C@H]5C)cc4)CC3)nn12 [AZD5153]; conditions: max 1 µM
Outline: as §1

Lapatinib = compound: CS(=O)(=O)CCNCc1ccc(-c2ccc3ncnc(Nc4ccc(OCc5cccc(F)c5)c(Cl)c4)c3c2)o1 [Lapatinib]; conditions: max 10 µM
Outline: as §1

AZD8186 = compound: C[C@@H](Nc1cc(F)cc(F)c1)c1cc(C(=O)N(C)C)cc2c(=O)cc(N3CCOCC3)oc12 [AZD8186]
Outline: as §1

Crizotinib = compound: C[C@@H](Oc1cc(-c2cnn(C3CCNCC3)c2)cnc1N)c1c(Cl)ccc(F)c1Cl [Crizotinib]; conditions: max 10 µM
Outline: as §1

Savolitinib = compound: C[C@@H](c1ccc2nccn2c1)n1nnc2ncc(-c3cnn(C)c3)nc21 [Savolitinib]; conditions: max 1 µM
Outline: as §1

AZD6738 = compound: C[C@@H]1COCCN1C2=NC(=NC(=C2)C3(CC3)[S@](=N)(=O)C)C4=C5C=CNC5=NC=C4 [AZD6738]; conditions: max 10 µM
Outline: as §1

AZD5991 = compound: Cc1c2c(nn1C)CSCc1cc(n(C)n1)CSc1cc(c3ccccc3c1)OCCCc1c(C(=O)O)n(C)c3c-2c(Cl)ccc13 [AZD5991]; conditions: max 1 µM
Outline: as §1

AZD7648 = compound: Cc1cc2ncnn2cc1Nc1ncc2c(n1)n(C1CCOCC1)c(=O)n2C [AZD7648]; conditions: max 10 µM
Outline: as §1

Taselisib = compound: Cc1nc(-c2cn3c(n2)-c2ccc(-c4cnn(C(C)(C)C(N)=O)c4)cc2OCC3)n(C(C)C)n1 [Taselisib]; conditions: max 10 µM
Outline: as §1

Selumetinib = compound: Cn1cnc2c(F)c(Nc3ccc(Br)cc3Cl)c(C(=O)NOCCO)cc21 [Selumetinib]; conditions: max 10 µM
Outline: as §1

SRA737 = compound: N#Cc1cnc(Nc2cc(NC[C@H]3CNCCO3)c(C(F)(F)F)cn2)cn1 [SRA737]; conditions: max 10 µM
Outline: as §1

MK-2206 = compound: NC1(c2ccc(-c3nc4ccn5c(=O)[nH]nc5c4cc3-c3ccccc3)cc2)CCC1 [MK-2206]; conditions: max 10 µM
Outline: as §1

[1] = compound: O=C(Nc1ccc2[nH]nc(-c3ccncc3)c2c1)[C@@H]1CCN(CC(=O)N2CCN(c3ccc(-c4ncccn4)cc3)CC2)C1; conditions: max 5 µM
Outline: as §1

Olaparib = compound: O=C(c1cc(Cc2n[nH]c(=O)c3ccccc23)ccc1F)N1CCN(C(=O)C2CC2)CC1 [Olaparib]; conditions: max 10 µM
Outline: as §1

5-Fluorouracil = compound: O=c1[nH]cc(F)c(=O)[nH]1 [5-Fluorouracil]; conditions: max 20 µM
Outline: as §1

Gemcitabine = compound: Nc1ccn([C@@H]2O[C@H](CO)[C@@H](O)C2(F)F)c(=O)n1 [Gemcitabine]; conditions: max 0.3 µM
Outline: as §1

Capivasertib = compound: C1CN(CCC1(C(=O)N[C@@H](CCO)C2=CC=C(C=C2)Cl)N)C3=NC=NC4=C3C=CN4 [Capivasertib]; conditions: max 10 µM
Outline: as §1

Cell Line	IC50, cell viability 72 h (Carboplatin)	IC50, cell viability 72 h (AZD5363)	IC50, cell viability 72 h (AZD1775)	IC50, cell viability 72 h (Trametinib)	IC50, cell viability 72 h (Paclitaxel)	IC50, cell viability 72 h (Palbociclib)	IC50, cell viability 72 h (AZD1390)	IC50, cell viability 72 h (Venetoclax)	IC50, cell viability 72 h (Dasatinib)	IC50, cell viability 72 h (SG3199)	IC50, cell viability 72 h (AZD2811)	IC50, cell viability 72 h (SN-38)	IC50, cell viability 72 h (AZD0156)	IC50, cell viability 72 h (AZD4320)	IC50, cell viability 72 h (Alisertib)	IC50, cell viability 72 h (Etoposide)	IC50, cell viability 72 h (Gefitinib)	IC50, cell viability 72 h (Prexasertib)	IC50, cell viability 72 h (Doxorubicin)	IC50, cell viability 72 h (AZD5153)	IC50, cell viability 72 h (Lapatinib)	IC50, cell viability 72 h (AZD8186; max 10 µM)	IC50, cell viability 72 h (Crizotinib)	IC50, cell viability 72 h (Savolitinib)	IC50, cell viability 72 h (AZD6738)	IC50, cell viability 72 h (AZD5991)	IC50, cell viability 72 h (AZD7648)	IC50, cell viability 72 h (Taselisib)	IC50, cell viability 72 h (Selumetinib)	IC50, cell viability 72 h (SRA737)	IC50, cell viability 72 h (MK-2206)	IC50, cell viability 72 h [1]	IC50, cell viability 72 h (Olaparib)	IC50, cell viability 72 h (5-Fluorouracil)	IC50, cell viability 72 h (Gemcitabine)	IC50, cell viability 72 h (Capivasertib)	IC50, cell viability 72 h (AZD8186; max 3 µM)
KP-3 (Pancreatic Carcinoma)	> 10 µM	> 10 µM	> 3000 nM	> 1000 nM	> 3000 nM	> 10 µM	> 300 nM	> 1000 nM	> 2000 nM	> 1 nM	> 1000 nM	> 300 nM	> 3000 nM	> 1000 nM	> 10000 nM	> 10 µM	> 10 µM	> 1000 nM	> 1000 nM	> 1000 nM	> 10 µM	> 10000 nM	> 10000 nM	> 1000 nM	> 10000 nM	> 1000 nM	> 10 µM	> 10000 nM	> 10000 nM	> 10 µM	> 10 µM	> 5000 nM	> 10 µM	> 20 µM			
KU812 (Chronic Myelogenous Leukemia)	> 10 µM	> 10 µM	298 nM	10.5 nM	17.6 nM	4.05 µM	> 300 nM	> 1000 nM	< 2 nM	> 1 nM	471 nM	37.4 nM	> 3000 nM	267 nM	701 nM	9.69 µM	> 10 µM	20.5 nM	567 nM	36.6 nM	> 10 µM	> 10000 nM	260 nM	> 1000 nM	2150 nM	235 nM	> 10 µM	> 10000 nM	260 nM	9.86 µM	4.07 µM	160 nM	> 10 µM	> 20 µM	27.1 nM		
KY821 (Acute Myeloid Leukemia)			212 nM	5.35 nM		0.61 µM	> 300 nM	9.8 nM	> 2000 nM	> 1 nM	> 1000 nM	8.99 nM	> 3000 nM	4.53 nM	28.6 nM		> 10 µM	8.46 nM	272 nM	22.1 nM	> 10 µM		4630 nM	> 1000 nM	3070 nM	13.2 nM	> 10 µM	90.7 nM	623 nM		> 10 µM		> 10 µM			> 10 µM	2700 nM
OCI-AML3 (Acute Myeloid Leukemia)	> 10 µM	> 10 µM	615 nM	2.98 nM	4.57 nM	5.34 µM	> 300 nM	> 1000 nM	> 2000 nM		324 nM	10.1 nM	> 3000 nM	> 1000 nM		1.27 µM	> 10 µM			25.6 nM	> 10 µM	> 10000 nM	6530 nM	> 1000 nM	1810 nM	250 nM	> 10 µM	1440 nM	91.9 nM	5.32 µM	> 10 µM	156 nM	> 10 µM	3.07 µM	5.04 nM		
SU-DHL-5 (B-Cell Non-Hodgkin's Lymphoma)			363 nM	1000 nM		0.559 µM	> 300 nM	> 1000 nM	10.8 nM	> 1 nM	9.84 nM	1.38 nM	> 3000 nM	> 1000 nM	359 nM		> 10 µM	4.89 nM	13 nM	42.3 nM	6.61 µM		1650 nM	> 1000 nM	457 nM	8.62 nM	6.58 µM	48.6 nM	> 10000 nM				3.38 µM			0.305 µM	160 nM
SUP-B15 (B-Lymphoblastic Leukemia)			692 nM	627 nM		> 10 µM	> 300 nM	3.48 nM	10.5 nM	> 1 nM	34 nM	2.7 nM	> 3000 nM	2.13 nM	38.4 nM		> 10 µM	21.7 nM	369 nM	98 nM	> 10 µM		1380 nM	> 1000 nM	2110 nM	38.9 nM	> 10 µM	> 10000 nM	> 10000 nM				2.02 µM			8.51 µM	> 3000 nM
